pIC50: −log10 of the molar value. Where a SMILES comes first, the peptide text is derived from it.

The first test addresses HLA-A*0201 (Homo sapiens, UniProt P04439, D140Y/D185E/D98H/E176V/E277Q/G131W/G231S/I119V/I121R/I166T/I218V/L300P/L318F/N151K/N90K/P208A/P217A/Q86G/Q94H/R138H/R169H/T345S). In words: In vitro class I HLA binding assay (fluorescence polarization competition). Conditions: allele A*0201; fluorescence polarization competition. In short, it runs like this:
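Cell-free competition assay: HLA heat-treated 53°C for 15 min to strip endogenous peptides, then mixed with fluorescent high-affinity control peptide and test peptides for 72 h to equilibrium. Displacement read by fluorescence polarization as percent inhibition; IC50 derived from a concentration range.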
Regarding KRASHTTPV [AMA1_607], the “IC50 (nM), in vitro HLA binding affinity” value was “Non-binder”.

The test is the same for the next values; noted with them: allele A*0201; fluorescence polarization competition; read-out: IC50 (nM), in vitro HLA binding affinity.
For `CC[C@H](C)[C@H](NC(=O)[C@H](CS)NC(=O)[C@@H](NC(=O)CNC(=O)[C@H](CC(N)=O)NC(=O)[C@H](CCC(=O)O)NC(=O)[C@H](CC(C)C)NC(=O)[C@@H](NC(=O)[C@@H](N)Cc1ccccc1)C(C)C)C(C)C)C(=O)O` [RIPR_0745] (H-FVLENGVCI-OH), the IC50 came to 4170 nM.

Take `CC[C@H](C)[C@H](NC(=O)[C@H](Cc1c[nH]c2ccccc12)NC(=O)[C@H](CO)NC(=O)[C@H](CC(=O)O)NC(=O)[C@H](CCCCN)NC(=O)[C@@H](NC(=O)[C@@H](N)CCCCN)C(C)C)C(=O)N[C@H](C(=O)N[C@@H](CC(C)C)C(=O)O)[C@@H](C)O` [CYRPA_082] (H-KVKDSWITL-OH): the IC50 is 4010 nM.

In another test the target is HLA-A*0301 (Homo sapiens, UniProt P04439). In words: biochemical.
Conditions: not given
It is filed as binding. The procedure: (§1) A cell-free class I HLA binding assay that allows for in vitro quantification of peptide-HLA binding affinity in a competition format was used. In this assay, a fluorescently labeled, high binding, control peptide is loaded onto 384-well ½-area plates along with unlabeled experimental peptides. To remove endogenous peptides and render the HLA A and B molecules receptive to binding, HLA is heated at 53°C for 15 minutes and immediately added to the assay. The mixture is then allowed to stand for three days. Once the mixture has reached steady equilibrium (at 72 hours), displacement of the high binding control peptide is measured through fluorescence polarization. Binding of experimental peptides is expressed as the percent inhibition of the labeled control peptide (experimental fluorescence / control fluorescence, multiplied by 100). The percent inhibition values for each experimental peptide (across a range of molar concentrations) are used to calculate the concentration which inhibits 50% of the labeled control peptide’s specific binding. This value is referred to as the peptide’s IC50.
Regarding `CC[C@H](C)[C@H](NC(=O)[C@@H](N)Cc1ccccc1)C(=O)N[C@@H](CO)C(=O)N[C@@H](CC(=O)O)C(=O)N[C@@H](CC(=O)O)C(=O)N[C@@H](CCCCN)C(=O)N[C@@H](CC(=O)O)C(=O)N[C@@H](CO)C(=O)N[C@@H](CC(C)C)C(=O)N[C@@H](CCCCN)C(=O)O` [AMA1_480K] (H-FISDDKDSLK-OH), the pIC50 is 3.16.

The same test, now with this note: allele A*0301; cell-free competition, fluorescence polarization at 72 hours; Non-binder = no dose-dependent inhibition; read-out: IC50.
With `CC[C@H](C)[C@H](NC(=O)[C@H](Cc1ccccc1)NC(=O)[C@@H](NC(=O)[C@H](Cc1ccccc1)NC(=O)[C@@H](NC(=O)[C@@H](N)CCCCN)[C@@H](C)CC)[C@@H](C)O)C(=O)N[C@@H](CCC(=O)O)C(=O)N[C@@H](CC(N)=O)C(=O)N[C@@H](CCCCN)C(=O)O` [EBA175_0058] (H-KIFTFIENK-OH), the pIC50 was 6.33.

For the compound `CC[C@H](C)[C@H](NC(=O)[C@H](Cc1c[nH]c2ccccc12)NC(=O)[C@H](CCC(=O)O)NC(=O)[C@H](CCCCN)NC(=O)[C@H](Cc1ccc(O)cc1)NC(=O)[C@H](CO)NC(=O)[C@@H](N)CC(N)=O)C(=O)N[C@@H](CO)C(=O)N[C@@H](CCCCN)C(=O)N[C@@H](CCCCN)C(=O)O` [EBA175_0667] (H-NSYKEWISKK-OH), the pIC50 is 5.13.

Still in this test, the particulars now being: allele A*0301; fluorescence polarization competition.
In the case of DLMNRTFKK [RH5_294], the “IC50 (nM), in vitro HLA binding affinity” value was “Non-Binder”.

Turning to LSVKSKNLNK [RH5_369], the “IC50 (nM), in vitro HLA binding affinity” value is given as “Non-Binder”.

Staying with this test, now noted: allele A*0301; fluorescence polarization competition; read-out: IC50 (nM), in vitro HLA binding affinity.
For the compound `C[C@H](N)C(=O)N[C@H](C(=O)N[C@@H](CS)C(=O)N[C@@H](CCCCN)C(=O)N[C@@H](Cc1ccc(O)cc1)C(=O)NCC(=O)N[C@@H](Cc1ccccc1)C(=O)N[C@@H](CC(N)=O)C(=O)N[C@@H](CCCCN)C(=O)O)[C@@H](C)O` [RIPR_0266] (H-ATCKYGFNK-OH), the IC50 is 4750 nM.

Another test addresses HLA-B*0702 (Homo sapiens, UniProt P01889). Description: In vitro class I HLA binding assay (fluorescence polarization competition). Particulars: allele B*0702; cell-free competition, fluorescence polarization at 72 hours; Non-binder = no dose-dependent inhibition. On the procedure:
as §1, with “Once the mixture has reached steady equilibrium (at 72 hours), displacement of the high binding control peptide is measured through fluorescence polarization.” left out
Turning to NPQQSVGENG [EBA175_0794], the “IC50 (nM)” value was “Non-binder”.

Take LQKHGFHTM [EBA175_1260]: the “IC50 (nM)” value is recorded as “Non-binder”.

In the case of TPGPLDNTSE [EBA175_1073], the “IC50 (nM)” value is “Non-binder”.

Still in this test, the particulars now being: allele B*0702; cell-free competition, fluorescence polarization at 72 hours; Non-binder = no dose-dependent inhibition; read-out: IC50.
For the compound `CC[C@H](C)[C@H](NC(=O)[C@H](CC(N)=O)NC(=O)[C@H](CC(=O)O)NC(=O)[C@H](CC(N)=O)NC(=O)[C@@H]1CCCN1C(=O)[C@@H](N)CO)C(=O)N[C@@H](CC(N)=O)C(=O)N[C@H](C(=O)N[C@H](C(=O)O)[C@@H](C)O)C(C)C` [EBA175_0979] (H-SPNDNINVT-OH), the pIC50 is 4.44.

As to `CC[C@H](C)[C@H](NC(=O)[C@@H](NC(=O)[C@H](C)NC(=O)[C@H](CCCCN)NC(=O)[C@@H]1CCCN1C(=O)[C@@H](N)CCSC)C(C)C)C(=O)NCC(=O)N[C@@H](CO)C(=O)N[C@@H](CO)C(=O)N1CCC[C@H]1C(=O)O` [EBA175_0971] (H-MPKAVIGSSP-OH), the pIC50 is 3.53.

Take `CC(C)C[C@H](NC(=O)[C@@H](NC(=O)[C@H](CC(N)=O)NC(=O)[C@H](CO)NC(=O)[C@H](CC(N)=O)NC(=O)[C@H](CCCNC(=N)N)NC(=O)[C@H](CC(=O)O)NC(=O)[C@H](CCC(=O)O)NC(=O)[C@@H]1CCCN1C(=O)[C@@H](N)CC(N)=O)[C@@H](C)O)C(=O)O` [EBA175_1224] (H-NPEDRNSNTL-OH): the pIC50 was 5.57.

Still in this test, the particulars now being: allele B*0702; fluorescence polarization competition.
As to KSAFLPTGAF [AMA1_376], the “IC50 (nM), in vitro HLA binding affinity” value is “Non-binder”.

Take CPENSTCEQI [RIPR_0331]: the “IC50 (nM), in vitro HLA binding affinity” value is reported as “Non-binder”.

With MIRIKKKLIL [RH5_001], the “IC50 (nM), in vitro HLA binding affinity” value is “Non-binder”.

With KPHECVCNKQ [RIPR_0878], the “IC50 (nM), in vitro HLA binding affinity” value is reported as “Non-binder”.

For KRASHTTPV [AMA1_607], the “IC50 (nM), in vitro HLA binding affinity” value is given as “Non-binder”.

As to MNRTFKKMM [RH5_296], the “IC50 (nM), in vitro HLA binding affinity” value is reported as “Non-binder”.

With LPSAKNNCEY [RIPR_0313], the “IC50 (nM), in vitro HLA binding affinity” value is given as “Non-binder”.

For FPCSLYKDEI [AMA1_441], the “IC50 (nM), in vitro HLA binding affinity” value is reported as “Non-binder”.

In the case of FITSDHLRQM [RH5_469], the “IC50 (nM), in vitro HLA binding affinity” value is “Non-binder”.

For the compound HPYDINNKND [RH5_240], the “IC50 (nM), in vitro HLA binding affinity” value is reported as “Non-binder”.

Turning to LPIKSTEEEK [RH5_042], the “IC50 (nM), in vitro HLA binding affinity” value is given as “Non-binder”.

The test is the same for the next values; noted with them: allele B*0702; fluorescence polarization competition; read-out: IC50 (nM), in vitro HLA binding affinity.
With `CC[C@H](C)[C@H](NC(=O)[C@H](CS)NC(=O)[C@@H](NC(=O)CNC(=O)[C@H](CC(N)=O)NC(=O)[C@H](CCC(=O)O)NC(=O)[C@H](CC(C)C)NC(=O)[C@@H](NC(=O)[C@@H](N)Cc1ccccc1)C(C)C)C(C)C)C(=O)O` [RIPR_0745] (H-FVLENGVCI-OH), the IC50 amounted to 284000 nM.

On to `CC[C@H](C)[C@H](NC(=O)[C@@H]1CCCN1C(=O)[C@@H](N)Cc1c[nH]cn1)C(=O)N[C@@H](CCC(=O)O)C(=O)N[C@H](C(=O)N[C@@H](CCC(=O)O)C(=O)N[C@@H](CC(N)=O)C(=O)N[C@@H](CC(N)=O)C(=O)N[C@@H](Cc1ccccc1)C(=O)O)C(C)C` [AMA1_433] (H-HPIEVENNF-OH), for which the IC50 is 310000 nM.

In the case of `CC[C@H](C)[C@H](NC(=O)[C@H](Cc1ccc(O)cc1)NC(=O)[C@@H]1CCCN1C(=O)[C@@H](N)CCCNC(=N)N)C(=O)N[C@@H](CO)C(=O)N[C@@H](CCCCN)C(=O)N[C@@H](CC(N)=O)C(=O)N[C@@H](CC(=O)O)C(=O)N[C@@H](CC(C)C)C(=O)O` [CYRPA_229] (H-RPYISKNDL-OH), the IC50 amounted to 244 nM.

`CC(C)C[C@H](NC(=O)[C@@H](NC(=O)[C@H](CO)NC(=O)[C@H](CCC(=O)O)NC(=O)[C@H](CS)NC(=O)[C@H](CC(=O)O)NC(=O)[C@H](CC(N)=O)NC(=O)[C@@H]1CCCN1C(=O)[C@@H](N)CCCNC(=N)N)C(C)C)C(=O)O` [RIPR_0676] (H-RPNDCESVL-OH): the half-inhibitory concentration (IC50) amounted to 377 nM.

For the compound `CC[C@H](C)[C@H](N)C(=O)N[C@H](C(=O)N[C@@H](CO)C(=O)N[C@@H](CC(=O)O)C(=O)N[C@@H](Cc1c[nH]cn1)C(=O)N[C@@H](CC(C)C)C(=O)N[C@@H](CCCNC(=N)N)C(=O)N[C@@H](CCC(N)=O)C(=O)N[C@@H](CCSC)C(=O)O)[C@@H](C)O` [RH5_470] (H-ITSDHLRQM-OH), the IC50 is 183000 nM.

For the compound `CC[C@H](C)[C@H](NC(=O)[C@H](Cc1c[nH]c2ccccc12)NC(=O)[C@H](CO)NC(=O)[C@H](CC(=O)O)NC(=O)[C@H](CCCCN)NC(=O)[C@@H](NC(=O)[C@@H](N)CCCCN)C(C)C)C(=O)N[C@H](C(=O)N[C@@H](CC(C)C)C(=O)O)[C@@H](C)O` [CYRPA_082] (H-KVKDSWITL-OH), the IC50 turned out to be 458 nM.

As to `CC(C)C[C@H](NC(=O)[C@H](CC(=O)O)NC(=O)[C@H](CC(N)=O)NC(=O)[C@H](CCCCN)NC(=O)[C@H](CCCCN)NC(=O)[C@H](CCCCN)NC(=O)[C@H](CC(N)=O)NC(=O)[C@H](CO)NC(=O)[C@@H]1CCCN1C(=O)[C@@H](N)[C@@H](C)O)C(=O)O` [RH5_286] (H-TPSNKKKNDL-OH), the IC50 came to 1880 nM.

In the case of `CC(C)C[C@H](NC(=O)[C@H](CC(N)=O)NC(=O)[C@H](CCCCN)NC(=O)[C@H](CCCNC(=N)N)NC(=O)[C@@H]1CCCN1C(=O)[C@@H](N)CS)C(=O)N[C@@H](CCC(N)=O)C(=O)N[C@@H](CC(N)=O)C(=O)N[C@@H](C)C(=O)O` [AMA1_302] (H-CPRKNLQNA-OH), the 50% inhibitory concentration (IC50) was 484 nM.

Take `CSCC[C@H](NC(=O)[C@H](CCC(=O)O)NC(=O)[C@H](CC(N)=O)NC(=O)[C@H](CCC(=O)O)NC(=O)[C@H](CCC(N)=O)NC(=O)[C@H](CC(C)C)NC(=O)[C@H](CC(N)=O)NC(=O)[C@H](CC(C)C)NC(=O)[C@@H]1CCCN1C(=O)[C@@H](N)CO)C(=O)O` [RIPR_0246] (H-SPLNLQENEM-OH): the IC50 was found to be 22400 nM.
